In US9951102B2, “Peptide inhibitor of Nox1 NADPH oxidase” (University of Iowa Research Foundation, priority 2014, dated 2018):
Where no end group is shown, it is not given here.

Assays:
[1] = test system: TNF-α-induced Nox1-dependent ROS production in WT VSMCs; assay: ROS detection by CM-H2DCF fluorescence in VSMCs; format: cell-based, mouse; settings: CalC pretreatment, TNF-α 10 ng/mL 30 minutes
Method: C57 WT or Nox1^−/y VSMCs were seeded on glass chamber slides at 75% confluence, serum-starved in cell culture medium containing no FBS for 24 h, washed in phenol red-free DMEM, and incubated in 10 μM CM-H2DCFDA for 30 m, pretreated with CalC or DMSO, and treated with 10 ng/mL TNF-α for 30 minutes. The cells were then washed 3×100 μL cold PBS, fixed with 2% paraformaldehyde for 15 minutes, washed twice with PBS, incubated in 1 μM To-Pro-3 for 5 minutes in dark, and washed twice with PBS. The chambers were removed and cells were mounted in Vectashield and imaged by confocal microscopy.
500 μL Opti-MEM was added to a 60 mm gelatin-coated cell culture plate. To this siPKC-β or siControl was added (final concentration 200 nM), plus 12 μL RNAiMax. Plates were rocked and incubated for 20 minutes. Cells were detached by use of trypsin, which was quenched in 10% FBS containing no antibiotics, centrifuged at 500 g for 5 minutes, resuspended in 5 mL 10% FBS without antibiotics and counted. Cells were added to plate for a seeding density of 75%, and medium was added to a final volume of 3 mL. Cells were incubated for 5 hours at 37° C., then medium was changed to 10% FBS. The next day, cells were serum starved in medium containing no FBS for 24 hours. Cells were then prepared for analysis by WB, DCF fluorescence or migration assay.

[2] = test system: WT VSMC migration; assay: Transwell migration assay to TNF-α; format: cell-based, mouse; settings: CalC pretreatment 30 minutes, 5 hours migration
Method: WT or Nox1^−/y C57 mouse aortic VSMCs were pretreated with CalC or DMSO (vehicle) for 30 minutes, washed once with PBS, and cells were detached with trypsin, which was quenched with trypsin inhibitor. Cells were transferred to a conical tube, centrifuged at 500 g for 5 minutes. The SNT was aspirated, and cells were resuspended in 125 μL cell culture medium containing no FBS. Cell counts were obtained on a Beckman Z1 Coulter Particle Counter. Cells suspensions were diluted to a concentration of 1,000 cells/μL. 50 μL of the cell suspension was added to the upper chamber of a Costar Transwell Permeable Support (8.0 μm polycarbonate membrane, 6.5 mm insert). 500 μl medium containing no FBS with or without TNF-α was added to the lower chamber. […] Cells were fixed in 4% paraformaldehyde, membranes were removed from support with a scalpel and mounted in Vectashield plus DAPI, cover-slipped and five random fields from each membrane were imaged at 20× and the number of cells migrated to the bottom of the Transwell was counted. […]
500 μL Opti-MEM was added to a 60 mm gelatin-coated cell culture plate. […] Cells were detached by use of trypsin, which was quenched in 10% FBS containing no antibiotics, centrifuged at 500 g for 5 minutes, resuspended in 5 mL 10% FBS without antibiotics and counted. […] Cells were then prepared for analysis by WB, DCF fluorescence or migration assay.

[3] = test system: Nox1 phosphorylation in A7r5 rat aortic VSMCs; assay: TNF-α-stimulated Nox1 phosphorylation, anti-p22phox IP / anti-STY Western blot, A7r5 VSMCs; format: cell-based; settings: CalC pretreatment 100 nM, TNF-α 10 ng/mL 10 minutes
Method: Equal volumes of samples were pre-cleared with Protein G Dynabeads (10 μL/1.5 mg protein in lysate) for 30 minutes at 4° C., end-over-end rotation, followed by a quick spin at high speed, then placed on a magnetic rack for 1 minute. SNT was removed to a new tube on ice. The p22^phox/Nox1 complex was immunoprecipitated using anti-p22^phox antibody C-17 (1 μg/500 μg protein in lysate) and rotated for 45 minutes at 4° C. (Hanna et al., 2004). Next, 20 μL Protein G Dynabeads was added to each sample and rotated for 20 minutes at 4° C., followed by a quick spin at high speed, then placed on a magnetic rack 1 m. SNT was moved to a new tube on ice and frozen for later analysis. The Dynabead pellet was washed three times with 200 μL NP40 buffer, followed by addition of 15 μL twice with sample buffer (4% SDS, 20% glycerol, 10% 2-mercaptoethanol, 0.004% bromphenol blue, 0.125 M Tris HCl, pH 6.8). […] Samples were then analyzed by WB.
One quarter volume of 5× sample buffer (6 g SDS, 40% glycerol, 30% 2-mercaptoethanol, 383.3 mg dithiothreitol, 372 mg EDTA, 378.3 mg Tris, 50 mg bromphenol blue in 50 ml ddH2O, pH 6.8) was added to lysates. […] Phosphorylation of Nox1 residues was determined utilizing a phospho-serine/threonine/tyrosine (p-STY) antibody that reacts with these residues only under phosphorylated conditions (Zhang et al., 2010, Chen et al., 2006). […]

[4] = test system: NADPH oxidase activity in VSMC membrane fractions; assay: ROS detection by lucigenin-enhanced chemiluminescence; format: cell-based, rat; settings: 30 minute pre-incubation, 100 nM DPI or 100 μM CalC, TNF-α 10 ng/mL 10 minutes
Method: A7r5 rat aortic smooth muscle cells were seeded at 75% confluence in 10% FBS medium, infected with AdNox1GFP for 48 hours, serum-starved in 0.2% FBS medium for 24 hours. Cells were then subjected to a 30 minute pre-incubation with 100 nM DPI or 100 μM CalC or DMSO, then treated with 10 ng/mL TNF-α for 10 minutes, washed three times in cold PBS, and homogenized in Homogenization Buffer (0.25 M sucrose, 10 mM triethanolamine, 4% protease inhibitor cocktail, 0.1 M EDTA, pH 7.4) with a Tissue Tearor. Lucigenin was then added to a final concentration of 5 μM. Samples were then analyzed by a FB12 Chemiluminometer every 10 seconds for 5 minutes. Then NADPH was added to a final concentration of 100 μM and readings were taken for another 5 m. Average baseline value was subtracted from the average NADPH-stimulated value.

[5] = biological target: T1, NoxA1 activation domain (AD) peptide LEPMDFLGKAKVV (Homo sapiens, UniProt Q86UR1); assay: Isothermal titration calorimetry peptide interaction; format: binding; settings: ITC, 25° C., pH 7.4, n=3 independent experiments, ± standard deviation; read-out: Affinity (Kd) for the interaction with NoxA1 AD peptide
T1 construct: purchased ProImmune
Method: The affinity of the interaction between non-phosphorylated and phosphorylated Nox1 and NoxA1 was determined by isothermal titration calorimetry (ITC). Phosphorylated or non-phosphorylated peptides corresponding to amino acids KLKTQKIYF (SEQ ID NO:9) of Nox1 and a peptide corresponding to amino acids LEPMDFLGKAKVV (SEQ ID NO:10) of NoxA1 peptides were purchased from ProImmune. The peptides were resuspended in 20 mM Na2HPO4, 100 mM […], pH 7.4 to a final concentration of 800 μM (Nox1) and 20 μM (NoxA1). The peptides were degassed and ITC measurements recorded using a MicroCal VP-ITC System (GE Healthcare). 21 injections of Nox1 peptides into NoxA1 peptide were used, with 240 s spacing between events. The chamber was kept under constant stirring at 350 rpm and all experiments were performed at 25° C. […] The constant heat of dilution, as determined by the average of the last 3-5 injections, was subtracted and the data are analyzed using the single site binding model provided in the ITC analysis package. The values for affinity and stoichiometry from three experiments were averaged and shown±standard deviation.

| Kd [5] [µM] | Molecule | Nox1-dependent ROS production (CM-H2DCF fluorescence) [1] | Migration of WT VSMCs to TNF-α [2] | TNF-α-stimulated Nox1 phosphorylation [3] | TNF-α-primed NADPH oxidase activity (lucigenin-enhanced chemiluminescence) [4] |
| --- | --- | --- | --- | --- | --- |
|  | COc1c(C[C@@H](C)OC(=O)Oc2ccc(O)cc2)c2c3c(C[C@@H](C)OC(=O)c4ccccc4)c(OC)c(=O)c4c(O)cc(OC)c(c5c(OC)cc(O)c(c1=O)c52)c43 [CalC, Calphostin C] | abrogated | blocked | inhibited | completely abolished |
|  | [Cl-].c1ccc2c(c1)[I+]c1ccccc1-2 [DPI, Diphenyleneiodoium chloride] |  |  |  | completely abolished |
| > 100 | KLKTQKIYF [Nox1 peptide, KLKTQKIYF] |  |  |  |  |
